Measured values from patent US20150105252A1, “SUBSTITUTED PYRAZOLES AS HERBICIDES” (E I DU PONT DE NEMOURS AND COMPANY, priority 2013, published 2015).

What was measured:
morningglory [1] = experiment: Test A preemergence; assay type: in vivo, Ipomoea spp.; settings: 0 to 100 scale
How it was run: (§1)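 Visual injury ratings, 0 = no effect to 100 = complete control, taken about 10 days after treatment against untreated controls. Test chemicals, in a non-phytotoxic surfactant-containing solvent, were sprayed onto soil preemergence or onto one- to two-leaf plants (2–10 cm) postemergence, in loam–sand soil under greenhouse conditions.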

morningglory [2] = experiment: Test A postemergence; assay type: in vivo, Ipomoea spp.
How it was run: as §1

pigweed = experiment: Test A postemergence; assay type: in vivo, Amaranthus retroflexus
How it was run: as §1

barnyardgrass = experiment: Test B flood; assay type: in vivo, Echinochloa crus-galli; settings: 250 g ai/ha, visual rating on 0 to 100 scale (0 no effect, 100 complete control), 13 to 15 days
How it was run: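 Greenhouse assay lasting 13 to 15 days. Treatment was into water flooding pots 3 cm deep, at the 2-leaf stage, with that level sustained afterwards. Scores compare treated with control plants visually, 100 denoting complete control and 0 no effect; a dash marks no test result.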

crabgrass, large [3] = experiment: Test C preemergence; assay type: in vivo, Digitaria sanguinalis
How it was run: (§2)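 Visual control ratings on a 0–100 scale (100 = complete control) made against untreated controls after 13 to 15 days in greenhouse. Compounds applied in surfactant-containing solvent mixture, either preemergence to loam/sand-sown seeds or postemergence to 1- to 4-leaf plants (2–18 cm) in peat medium.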

foxtail, giant = experiment: Test C preemergence; assay type: in vivo, Setaria faberii
Source text: (§3) Seeds of plant species selected from blackgrass (Alopecurus myosuroides), ryegrass, Italian (Italian ryegrass, Lolium multiflorum), wheat (winter wheat, Triticum aestivum), galium (catchweed bedstraw, Galium aparine), corn (Zea mays), crabgrass, large (large crabgrass, Digitaria sanguinalis), foxtail, giant (giant foxtail, Setaria faberii), johnsongrass (Sorghum halepense), lambsquarters (Chenopodium album), morningglory (Ipomoea coccinea), nutsedge, yellow (yellow nutsedge, Cyperus esculentus), pigweed (redroot pigweed, Amaranthus retroflexus), ragweed (common ragweed, Ambrosia elation), soybean (Glycine max), barnyardgrass (Echinochloa crus-galli), oilseed rape (Brassica napus), waterhemp (common waterhemp, Amaranthus rudis), oat, wild (wild oat, Avena fatua), kochia (Kochia scoparia), Surinam grass (Brachiaria decumbens), foxtail, green (green foxtail, Setaria viridis), goosegrass (Eleusine indica), bromegrass, downy (downy bromegrass, Bromus tectorum), nightshade (eastern black nightshade, Solanum ptycanthum), cocklebur (common cocklebur, Xanthium strumarium), cupgrass, woolly (woolly cupgrass, Eriochloa villosa), bermudagrass (Cynodon dactylon), sunflower, (common oilseed sunflower, Helianthus annuus), Russian thistle (Salsola kali), and velvetleaf (Abutilon theophrasti) were planted into a blend of loam soil and sand and treated preemergence with test chemicals formulated in a non-phytotoxic solvent mixture which included a surfactant.
(§4) At the same time, plants selected from these crop and weed species and also chickweed (common chickweed, Stellaria media), canarygrass (littleseed canarygrass, Phalaris minor), and deadnettle (henbit deadnettle, Lamium amplexicaule), were planted in pots containing Redi-Earth® planting medium (Scotts Company, 14111 Scottslawn Road, Marysville, Ohio 43041) comprising spaghnum peat moss, vermiculite, wetting agent and starter nutrients and treated with postemergence applications of test chemicals formulated in the same manner. Plants ranged in height from 2 to 18 cm (1- to 4-leaf stage) for postemergence treatments. Treated plants and controls were maintained in a greenhouse for 13 to 15 days, after which time all species were compared to controls and visually evaluated. Plant response ratings, summarized in Table C, are based on a scale of 0 to 100 where 0 is no effect and 100 is complete control. A dash (-) response means no test result.

waterhemp = experiment: Test C preemergence; assay type: in vivo, Amaranthus rudis
Source text: as §3, §4

blackgrass = experiment: Test C postemergence; assay type: in vivo, Alopecurus myosuroides
How it was run: as §2

wheat = experiment: Test C postemergence; assay type: in vivo, Triticum aestivum
Source text: as §3, §4

corn = experiment: Test C postemergence; assay type: in vivo, Zea mays
How it was run: as §2

crabgrass, large [4] = experiment: Test C postemergence; assay type: in vivo, Digitaria sanguinalis
How it was run: as §2

johnsongrass = experiment: Test C postemergence; assay type: in vivo, Sorghum halepense
Source text: as §3, §4

oilseed rape = experiment: Test C postemergence; assay type: in vivo, Brassica napus
How it was run: as §2

[5] = Postemergence, 500 g ai/ha, visual rating after approx. 10 days, 0 to 100 scale (0 no effect, 100 complete control)
[6] = postemergence, 125 g ai/ha, about 10 days, visual rating on 0 to 100 scale (0 no effect, 100 complete control)
[7] = preemergence, 31 g ai/ha, visual rating, scale 0 to 100 (0 no effect, 100 complete control), 13 to 15 days
[8] = preemergence, 62 g ai/ha, 13 to 15 days, scale 0 to 100, 0 = no effect, 100 = complete control
[9] = preemergence, 125 g ai/ha, scale 0 to 100, 0 is no effect, 100 is complete control
[10] = Postemergence, 31 g ai/ha, visually evaluated after 13 to 15 days
[11] = postemergence, 62 g ai/ha, scale 0 to 100
[12] = postemergence, 250 g ai/ha, scale 0 to 100 (0 no effect, 100 complete control)
[13] = postemergence, 125 g ai/ha, scale 0 to 100, 0 no effect, 100 complete control

CCc1cc(C(=O)NCC(F)(F)F)nn1Cc1ccnc(C(F)(F)F)c1 [Compound 78, 5-ethyl-N-(2,2,2-trifluoroethyl)-1-[[(2-trifluoromethyl)-4-pyridinyl]methyl]-1H-pyrazole-3-carboxamide]
Morningglory plant response rating (morningglory [1]; Preemergence, 500 g ai/ha, 0 no effect, 100 complete control): 100
Morningglory plant response rating (morningglory [1]; preemergence, 125 g ai/ha, visual injury, approx. 10 days): 100
Morningglory plant response rating (morningglory [2]; [5]): 100
Morningglory plant response rating (morningglory [2]; [6]): 100
Pigweed plant response rating (pigweed; [5]): 100
Pigweed plant response rating (pigweed; [6]): 100
Plant response rating, Barnyardgrass (barnyardgrass): 50
Plant response rating (scale of 0 to 100), Crabgrass, Large (crabgrass, large [3]; Preemergence, 250 g ai/ha): 100
Crabgrass, Large plant response rating (crabgrass, large [3]; [7]): 100
Plant response rating, Crabgrass, Large (crabgrass, large [3]; [8]): 100
Crabgrass, Large plant response rating (crabgrass, large [3]; [9]): 100
Plant response rating (scale of 0 to 100), Foxtail, Giant (foxtail, giant; Preemergence, 250 g ai/ha): 100
Foxtail, Giant plant response rating (foxtail, giant; [7]): 90
Plant response rating, Foxtail, Giant (foxtail, giant; [8]): 98
Foxtail, Giant plant response rating (foxtail, giant; [9]): 98
Plant response rating (scale of 0 to 100), Waterhemp (waterhemp; Preemergence, 250 g ai/ha): 100
Waterhemp plant response rating (waterhemp; [7]): 100
Plant response rating, Waterhemp (waterhemp; [8]): 100
Waterhemp plant response rating (waterhemp; [9]): 100
Plant response rating (scale of 0 to 100 where 0 is no effect and 100 is complete control), Blackgrass (blackgrass; [10]): 5
Blackgrass plant response rating (blackgrass; [11]): 5
Plant response rating, Blackgrass (blackgrass; [12]): 50
Plant response rating, Blackgrass (blackgrass; [13]): 10
Plant response rating (scale of 0 to 100 where 0 is no effect and 100 is complete control), Wheat (wheat; [10]): 5
Wheat plant response rating (wheat; [11]): 10
Plant response rating, Wheat (wheat; [12]): 35
Plant response rating, Wheat (wheat; [13]): 10
Plant response rating (scale of 0 to 100 where 0 is no effect and 100 is complete control), Corn (corn; [10]): 10
Corn plant response rating (corn; [11]): 15
Plant response rating, Corn (corn; [12]): 80
Plant response rating, Corn (corn; [13]): 25
Plant response rating (scale of 0 to 100 where 0 is no effect and 100 is complete control), Crabgrass, Large (crabgrass, large [4]; [10]): 15
Crabgrass, Large plant response rating (crabgrass, large [4]; [11]): 25
Plant response rating, Crabgrass, Large (crabgrass, large [4]; [12]): 90
Plant response rating, Crabgrass, Large (crabgrass, large [4]; [13]): 80
Plant response rating (scale of 0 to 100 where 0 is no effect and 100 is complete control), Johnsongrass (johnsongrass; [10]): 0
Johnsongrass plant response rating (johnsongrass; [11]): 5
Plant response rating, Johnsongrass (johnsongrass; [12]): 75
Plant response rating, Johnsongrass (johnsongrass; [13]): 55
Plant response rating (scale of 0 to 100 where 0 is no effect and 100 is complete control), Oilseed Rape (oilseed rape; [10]): 45
Oilseed Rape plant response rating (oilseed rape; [11]): 45
Plant response rating, Oilseed Rape (oilseed rape; [12]): 55
Plant response rating, Oilseed Rape (oilseed rape; [13]): 50
